Source: patent US20240208945A1, “6-CARBAMATE SUBSTITUTED HETEROARYL RING DERIVATIVES” (MEDSHINE DISCOVERY INC., priority 2021, published 2024)
Structures can show the parent of a compound that is named as a salt.

Columns and labels:
[1] = biological target: binding of KRAS(G12C) to SOS1 (Homo sapiens (Human), UniProt Q07889); assay: KRAS(G12C) and SOS1 binding assay (HTRF); settings: 25° C., 60 minutes
From the text: The small molecular compound binds to the catalytic site of SOS1, thus inhibiting the binding of SOS1 to KRAS (G12C). When the binding of fluorescently labeled SOS1 protein to fluorescently labeled KRAS (G12C) protein is inhibited, the emitted fluorescence changes. The ability of small molecules to prevent the binding of SOS1 to KRAS (G12C) can be tested by detecting changes in fluorescence. A homogeneous time-resolved fluorescence (HTRF) binding assay was used to detect the ability of the compounds of the present disclosure to inhibit the binding of SOS1 to KRAS (G12C).
KRAS (G12C) protein was expressed and purified by Wuhan AtaGenix Biotechnology Co., Ltd., SOS1 exchange domin (564-1049) protein (Human recombinant) was purchased from Cytoskeleton, Mab Anti 6HIS-XL665 and Mab Anti GST-Eu cryptate were purchased from Cisbio. Multimode microplate reader Nivo5 was purchased from PerkinElmer.
1× buffer preparation (ready-to-use): Hepes: 5 mM; NaCl: 150 mM; EDTA: 10 mM; Igepal: 0.0025%; KF: 100 mM; DTT: 1 mM; BSA: […];
The test compounds were 5-fold diluted with DMSO using a multi-channel pipette to the 8th concentration, i.e., diluted from 1 mM to 0.064 μM.
The test compound was diluted by gradient with 1× buffer to a working solution with 2% DMSO. 5 μL/well of the working solution was added to corresponding wells, and the corresponding concentration gradient was 20 μM to […]. Duplicate experiment was set. The working solution was centrifuged at 1000 rpm for 1 minute.
A mixed working solution of KRAS(G12C) (200 nM) and Mab Anti GST-Eu cryptate (1 ng/μL) was prepared with 1× buffer, and the mixed working solution was incubated at 25° C. for 5 minutes, and 2.5 μL/well of the mixed working solution was added to the corresponding wells.
A mixed working solution of SOS1 (80 nM) and Mab Anti 6HIS-XL665 ([…]) was prepared with 1× buffer, and 2.5 μL/well of the mixed working solution was added to the corresponding wells. 2.5 μL of Mab Anti 6HIS-XL665 ([…]) diluent was added to blank wells. At this time, the final concentration gradient of the compound was diluted from 10 μM to 0.64 nM, KRAS(G12C) ([…]), MAb Anti GST-Eu cryptate (0.25 ng/μL), SOS1 (20 nM), Mab Anti 6HIS-XL665 (2 g/μL), the reaction system was placed at 25° C. for 60 minutes. After the reaction was completed, the multimode microplate reader was used to read HTRF.
Using the equation (Sample−Min)/(Max−Min)×100% to convert the raw data into inhibition rate, the IC50 value might be obtained by curve fitting with four parameters (obtained by “log (inhibitor) vs. response—Variable slope” mode in GraphPad Prism).

[2] = system: p-ERK in DLD-1 cells; assay: p-ERK inhibitory activity test in DLD-1 cells (HTRF Phospho-ERK1/2 kit); format: cell-based; settings: Homo sapiens, 1 hour incubation
Experimental: DLD-1 cells were purchased from Nanjing Cobioer; 1640 medium was purchased from Biological Industries; fetal bovine serum was purchased from Biosera; Advanced Phospho-ERK1/2 (THR202/TYR204) KIT was purchased from Cisbio.
DLD-1 cells were seeded in a transparent 96-well cell culture plate, with 80 μL of cell suspension per well and 8000 DLD-1 cells per well. The cell plate was incubated in a carbon dioxide incubator at 37° C. overnight; • the test compound was diluted to 2 mM with 100% DMSO as the first concentration, and then 5-fold diluted to the 8th concentration with a pipette, that is, diluted from 2 mM to 0.026 μM. 2 μL of compound was added to 78 μL of cell starvation medium. After mixing well, 20 μL of compound solution was taken and added to the corresponding cell plate wells, and the cell plate was put back to the carbon dioxide incubator to continue to incubate for 1 hour; at this time, the concentration of the compound was from 10 μM to 0.128 nM, and the concentration of DMSO was 0.5%; • after the incubation was completed, the cell supernatant was discarded, and 50 μL of cell lysate was added to each well, and incubated at room temperature for 30 minutes with shaking; • Phospho-ERK1/2 Eu Cryptate antibody and Phospho-ERK1/2 d2 antibody were 20-fold diluted using Detection buffer; • 16 μL of cell lysate supernatant per well was put into a new 384 white microplate, then 2 μL of Phospho-ERK1/2 Eu Cryptate antibody diluent and 2 μL of Phospho-ERK1/2 d2 antibody diluent were added thereto and incubated at room temperature for 4 hours; • after the incubation was completed, a multimode microplate reader was used to read HTRF excitation: 320 nm, emission: 615 nm, 665 nm.
Using the equation (Sample−Min)/(Max−Min)*100% to convert the raw data into inhibition rate, the IC50 value might be obtained by curve fitting with four parameters (obtained by “log (inhibitor) vs. response—Variable slope” mode in GraphPad Prism). • Max well: Positive control well reading is 1× lysate • Min well: Negative control well reading is 0.5% DMSO cell well cell lysate

Sequence of binding of KRAS(G12C) to SOS1 (Q07889 564-1049, stated change not applied): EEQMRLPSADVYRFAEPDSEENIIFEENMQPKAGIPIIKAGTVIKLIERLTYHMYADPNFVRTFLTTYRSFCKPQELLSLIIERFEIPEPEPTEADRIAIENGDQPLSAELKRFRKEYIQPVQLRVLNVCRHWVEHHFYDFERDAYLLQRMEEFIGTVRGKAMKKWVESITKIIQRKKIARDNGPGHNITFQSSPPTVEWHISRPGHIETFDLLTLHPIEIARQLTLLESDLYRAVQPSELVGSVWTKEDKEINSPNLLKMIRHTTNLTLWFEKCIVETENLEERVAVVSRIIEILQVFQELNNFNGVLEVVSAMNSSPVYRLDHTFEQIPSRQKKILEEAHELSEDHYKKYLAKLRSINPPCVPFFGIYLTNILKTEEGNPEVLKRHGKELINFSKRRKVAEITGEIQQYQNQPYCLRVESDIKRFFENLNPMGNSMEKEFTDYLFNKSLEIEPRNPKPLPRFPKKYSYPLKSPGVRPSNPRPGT

SMILES | IC50 [1] [nM] | IC50 [2] [nM]
COc1cc2nc(C)nc(N[C@H](C)c3cc(N)cc(C(F)(F)F)c3)c2cc1OC(=O)N1CCN(C)CC1 [Compound 2] | 110 | 122
COc1cc2nc(C)nc(N[C@H](C)c3cc(N)cc(C(F)(F)F)c3)c2cc1OC(=O)N1CCC2(CCOC2)CC1 [Compound 7] | 92.8 | 
COc1cc2nc(C)nc(N[C@H](C)c3cc(N)cc(C(F)(F)F)c3)c2cc1OC(=O)N1CCN(C2COC2)CC1 [Compound 9] | 83.6 | 
COc1cc2nc(C)nc(N[C@H](C)c3cc(N)cc(C(F)(F)F)c3)c2cc1OC(=O)N1CCN2CCCC2C1 (some centres unmarked) [Compound 10] |  | 86.2
COc1cc2nc(C)nc(N[C@H](C)c3cc(N)cc(C(F)(F)F)c3)c2cc1OC(=O)N1CCC2(CC1)CO[C@H](C)[C@@H]2N [Compound 11] | 78.6 | 
COc1cc2nc(C)nc(N[C@H](C)c3cc(N)cc(C(F)(F)F)c3)c2cc1OC(=O)N1CCCN(C)CC1C (some centres unmarked) [Compound 13] | 70.4 | 282
COc1cc2nc(C)nc(N[C@H](C)c3cccc(C(F)(F)C(C)(C)O)c3F)c2cc1OC(=O)N1CCN(C2COC2)CC12CC2 [Compound 24] | 47.9 | 
COc1cc2nc(C)nc(N[C@H](C)c3cccc(C(F)F)c3F)c2cc1OC(=O)N1CCNCC12CC2 [Compound 25] | 86.1 | 
COc1cc2nc(C)nc(N[C@H](C)c3cccc(C(F)F)c3F)c2cc1OC(=O)N1CCN(C2COC2)CC12CC2 [Compound 26] | 65.9 | 283
COc1cc2nc(C)nc(N[C@H](C)c3cc(N)cc(C(F)(F)F)c3F)c2cc1OC(=O)N1CCN(C)CC1C (some centres unmarked) [Compound 27] | 40.6 | 112
COc1cc2nc(C)nc(N[C@H](C)c3cc(N)cc(C(F)(F)F)c3)c2cc1OC(=O)N1CCN(C)CC1C (some centres unmarked) [Hydrochloride of compound 4] | 71.1 | 113
CCN1CCN(C(=O)Oc2cc3c(N[C@H](C)c4cc(N)cc(C(F)(F)F)c4)nc(C)nc3cc2OC)CC1 [Hydrochloride of compound 5] | 77.3 | 219
COc1cc2nc(C)nc(N[C@H](C)c3cc(N)cc(C(F)(F)F)c3)c2cc1OC(=O)N1CCNCC1 [Hydrochloride of compound 6] | 87.6 | 
COc1cc2nc(C)nc(N[C@H](C)c3cc(N)cc(C(F)(F)F)c3)c2cc1OC(=O)N1CCC(N(C)C)CC1 [Hydrochloride of compound 8] | 73.7 | 
COc1cc2nc(C)nc(N[C@H](C)c3cccc(C(F)(F)C4CCCO4)c3F)c2cc1OC(=O)N1CCN(C)CC1C (some centres unmarked) [Hydrochloride of compound 15] | 149 | 
COc1cc2nc(C)nc(N[C@H](C)c3cccc(C(F)(F)CO)c3)c2cc1OC(=O)N1CCN(C)CC1C (some centres unmarked) [Hydrochloride of compound 16] | 59.6 | 222
COc1cc2nc(C)nc(N[C@H](C)c3cccc(C(F)(F)CO)c3F)c2cc1OC(=O)N1CCN(C)CC1C (some centres unmarked) [Hydrochloride of compound 18] | 23.4 | 243
COc1cc2nc(C)nc(N[C@H](C)c3cccc(C(F)F)c3F)c2cc1OC(=O)N1CCN(C)CC1C (some centres unmarked) [Hydrochloride of compound 19] | 105 | 
